These results are taken from US12274756B2, “Methods of treating and diagnosing epilepsy” (YALE UNIVERSITY, priority 2019, dated 2025).

The assay concerns Rheb^CA neurons. Nature of the assay: Whole cell patch clamp recording in acute slices, Rheb^CA (FCM) neurons. The class given is cell-based, mice. As to the method:
Each DNA plasmid was diluted in sterile PBS (pH 7.4) to a final concentration of 1.5-3 μg/μl (specific concentrations below). About 1 μl of DNA solution containing 0.1% fast green was injected into the lateral ventricle of E15.5±0.5 fetuses with a glass pipette. After injection, PBS soaked tweezer-type electrodes (model 520, BTX) were positioned on heads of the fetuses across the uterine wall and 6 square-pulses (42V, 50 ms duration, 950 ms intervals) were applied using a pulse generator (ECM830, BTX), Mice were prescreened for successful electroporation on a fluorescence enabled stereo microscope (SZX16, Olympus) prior to recruitment for EEG monitoring. To generate epilepsy-associated FCM, a DNA solution composed of pCAG-RhebS16H (Rheb^CA, 2 μg/μl) and pCAG-tdTomato (1 μg/μl) was injected in half of all fetuses while pCAG-GFP (3 μg/μl) containing solution was injected in the remaining littermates as controls. To silence FCM neurons, pCAG-Kir2.1-T2A-tdTomato (2 μg/μl)+pCAG-Rheb^CA (2 μg/μl) was injected in half of the fetuses while the remaining half received pCAG-Rheb^CA (2 μg/μl)+pCAG-GFP (2 μg/μl) as controls.
1-5-week-old mice were used for acute slices. Tissue was dissected and sliced in ice cold artificial cerebral spinal fluid (aCSF)oxygenated with 95% O2/5% CO2. The aCSF contained (all in mM): 124 NaCl, 3 KCl, 1.25 NaH2PO4, 1 MgSO4, 26 NaHCO3, 10 Dextrose, 2 CaCl2, 0.4 ascorbate, 4 Na-Lactate, 2 Na-Pyruvate (290±5 mOsm/kg, pH 7.2). Coronal sections (350 μm) were prepared using a vibratome (Vibratome 1000). Sections were incubated in aCSF at 32° C. for 45 minutes before returning to room temperature (25° C.) where they were kept for 8 to 10 hours during experimentation. Fluorescent neurons in the mPFC were visualized using epifluorescence on an Olympus BX51WI microscope with a 40× water immersion objective (Olympus, LUMPlanFL/IR). Whole-cell recordings were performed at 28° C. using pulled glass pipettes ([…]) filled with internal solution (in mM: 110 K-gluconate, 4 KCL, 10 HEPES, 10 di-tris-phosphocreatine, 4 Mg-ATP, 0.3 Na-GTP). Recordings were acquired with an amplifier (Axopatch 200B, Molecular Devices), The resting membrane potential was recorded within the first 10 seconds after achieving whole, cell configuration in current-clamp mode, while the cell is at rest without any holding current. The membrane conductance was calculated using the average membrane potential change from ten hyperpolarizing current injections of −500 pA in current-clamp mode when the cell is at rest. The action potential half width was calculated at half of the peak amplitude of a single action potential induced by current injection. The action potential firing threshold was defined as the membrane potential at which the first derivative of an action potential in current-clamp mode achieves 10% of its peak velocity (dV/dt). The action potential input-output curve was generated by injecting positive current in current-clamp mode from 0 to 2 nA at 100 pA increments for 500 msec.

Where [1] appears, read: Rheb^CA neurons with zatebradine.

For the molecule `C=C[C@@]1(C)CC(=O)[C@]2(O)[C@@]3(C)[C@@H](O)CCC(C)(C)[C@@H]3[C@H](O)[C@H](OC(C)=O)[C@@]2(C)O1` [forskolin], for the setting “Rheb^CA neurons, forskolin bath-application”, the “neurons generating repetitive action potentials” value is reported as 4/9.
Regarding `COc1ccc(CCN(C)CCCN2CCc3cc(OC)c(OC)cc3CC2=O)cc1OC` [zatebradine], where the note is “500 ms-long voltage step, Rheb^CA vs Rheb^CA+zatebradine”, the “h current amplitude difference (ΔI)” value is listed as “significantly reduced”. Further, under setting [1], the “residual inward current at −90 mV” value is recorded as “no residual inward current” and the “resting membrane potential (RMP)” value is listed as “shifted RMP of cells to hyperpolarized values similar to those of control neurons”. In addition, where the note is “Rheb^CA neurons, −500 pA current step, zatebradine 40 μM”, the “hyperpolarization-induced voltage sag response” value is listed as “eliminated the sag response”. For the setting “slices from P8-P12 mice”, the “HCN currents in Rheb^CA neurons before seizure onset” value is “zatebradine-sensitive”. Moreover, for the setting “voltage-clamp steps from −40 to −130 mV, in the presence of zatebradine, not fully blocked”, the hyperpolarization-activated inward currents result was “significantly reduced”.
